Literature values as cited in PMC8654284 (Science Advances, 2021).
Like-named read-outs stand apart in the source and are kept apart here.

Tests used:
NK1R [1] = system: NK1R
NK1R [2] = settings: NKA and NKB compared to SP
NK1R E172K = settings: NK1R E172 mutated to lysine as found in NK3R
NK1R [3] = settings: clinically used NK1R antagonists
NK1R [4] = settings: said to explain the insurmountable antagonism only in part
[5] = inhibition of receptor activation by SP

Compound | affinity for NK1R (NK1R [2]) | mode of antagonism (NK1R [1]; [5]) | in vivo efficacy (duration) (NK1R [3]) | dissociation kinetics (NK1R [4]) | further results
COc1ccccc1CN[C@H]1CCCN[C@H]1c1ccccc1 [CP-99,994] |  |  |  |  | mode of antagonism (NK1R [1]; compared to aprepitant and netupitant): tight-binding, but surmountable
neurokinin B [NKB] | lower affinity compared to SP |  |  |  | affinity of NKB at E172K mutant (NK1R E172K): increases affinity
Cc1ccccc1-c1cc(N2CCN(C)CC2)ncc1N(C)C(=O)C(C)(C)c1cc(C(F)(F)F)cc(C(F)(F)F)c1 [netupitant] |  | pseudo-irreversible antagonists | markedly prolonged in vivo efficacy | slower dissociation kinetics | 
C[C@@H](O[C@H]1OCCN(Cc2n[nH]c(=O)[nH]2)[C@H]1c1ccc(F)cc1)c1cc(C(F)(F)F)cc(C(F)(F)F)c1 [aprepitant] |  | pseudo-irreversible antagonists | markedly prolonged in vivo efficacy | slower dissociation kinetics | 
neurokinin A [NKA] | lower affinity compared to SP |  |  |  | 
